Target: T1, human OX2R (Homo sapiens, UniProt O43614)
T1 construct: expressed in transfected cells; host or cells: CHO (Chinese hamster ovary) cells grown under G418 selection
T1 sequence (O43614 1-444): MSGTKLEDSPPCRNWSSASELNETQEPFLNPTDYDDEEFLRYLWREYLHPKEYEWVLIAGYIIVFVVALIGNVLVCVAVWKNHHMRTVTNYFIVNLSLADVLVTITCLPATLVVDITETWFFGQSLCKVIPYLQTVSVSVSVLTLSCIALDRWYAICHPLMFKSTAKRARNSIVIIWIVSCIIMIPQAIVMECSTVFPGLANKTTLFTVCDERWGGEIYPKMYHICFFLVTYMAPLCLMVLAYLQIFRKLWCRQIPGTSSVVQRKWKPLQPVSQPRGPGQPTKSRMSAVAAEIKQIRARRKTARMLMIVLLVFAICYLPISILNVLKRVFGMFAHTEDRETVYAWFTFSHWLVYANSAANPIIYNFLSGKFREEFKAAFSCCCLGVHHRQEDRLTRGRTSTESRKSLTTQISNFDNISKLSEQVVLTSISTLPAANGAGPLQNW
Test: IPOne (IP-1 accumulation) assay in CHO cells expressing human OX2R
Type: cell-based
Conditions: for EC50: CHO cells expressing human OX2R, IP-One assay, 2 h incubation, four parameter logistic fit, read-out: OX2R Potency, EC50; for % of maximum agonist effect (relative to Orexin A): percent effect vs mean max effect of a reference compound at 1 uM (100% activity vs Orexin A), human OX2R
Source text: The utility of the compounds in accordance with the present invention as orexin receptor OX1R and/or OX2R agonists may be readily determined without undue experimentation by methodology well known in the art. Both the OX1R and/or OX2R G-coupled protein receptors (GPCRs) couple through the Gαq signaling pathway, which ultimately promotes calcium mobilization via inositol triphosphate (IP3) production. […] The utility of the compounds in accordance with the present invention as orexin receptor OX1R and/or OX2R agonists may be determined utilizing this assay.
In a typical experiment, the OX1 and OX2 receptor agonist activity is determined in accordance with the following general experimental method. Chinese hamster ovary (CHO) cells expressing human OX1R and/or the human OX2R were grown in Iscove's modified DMEM containing glutaMAX™, 1% G418, 100 U/mL penicillin, 100 μg/mL streptomycin and 10% heat-inactivated qualified fetal bovine serum (FBS). […] During this incubation, IP-one detection reagents were prepared (38:1:1 lysis buffer:D2:AB-cryptate reagents).
For each compound, data were fit to a four parameter logistic fit (ActivityBase software) and the EC50 was reported as the inflection point of the resulting curve. […] The intrinsic orexin receptor agonist activity of a compound which may be used in the present invention may be determined by these assays.

Q: For `CCN(C(=O)N[C@@H](CCC(F)(F)F)C(F)(F)F)C(c1ncc(OC)c(-c2cn3ccnc3c(OC)n2)n1)C(F)(F)F` (stereo partly drawn) [Example 10-4, 1-ethyl-3-((S)-1,1,1,5,5,5-hexafluoropentan-2-yl)-1-(2,2,2-trifluoro-1-(5-methoxy-4-(8-methoxyimidazo[1,2-a]pyrazin-6-yl)pyrimidin-2-yl)ethyl)urea], which EC50 is on record?
A: Its EC50 is 1.3 nM.

Q: What about the “% of maximum agonist effect (relative to Orexin A)” value of the same compound?
A: The value was 100.7%.

Q: With `CCN(C(=O)NC(CC(F)F)C(F)(F)F)[C@H](C)c1cccc(-c2cn3ccnc3c(OC)n2)c1` (stereo partly drawn) [Example 2-52, 1-ethyl-1-((R)-1-(3-(8-methoxyimidazo[1,2-a]pyrazin-6-yl)phenyl)ethyl)-3-(1,1,1,4,4-pentafluorobutan-2-yl)urea] as the compound, how does the EC50 read?
A: Its EC50 is 35.8 nM.

Q: And the “% of maximum agonist effect (relative to Orexin A)” value?
A: Its value is 100.6%.

Q: How did the EC50 turn out when `CC[C@H](CCC(F)(F)F)NC(=O)N(CC)[C@H](C)c1cccc(-c2cc(C(F)F)c3nccn3c2)c1` [Example 7-3, 1-((R)-1-(3-(8-(difluoromethyl)imidazo[1,2-a]pyridin-6-yl)phenyl)ethyl)-1-ethyl-3-((R)-6,6,6-trifluorohexan-3-yl)urea] was run?
A: Its EC50 is 491 nM.

Q: And the “% of maximum agonist effect (relative to Orexin A)” value?
A: Its value is 86.1%.

Q: `CC[C@H](CCC(F)(F)F)NC(=O)N(CC)[C@H](C)c1cc2c(c(-c3ccc4nccn4c3)c1)OCC2` [Example 11-1, 1-ethyl-1-((R)-1-(7-(imidazo[1,2-a]pyridin-6-yl)-2,3-dihydrobenzofuran-5-yl)ethyl)-3-((R)-6,6,6-trifluorohexan-3-yl)urea] was tested. Which EC50 did it give?
A: Its EC50 is 5.6 nM.

Q: And the “% of maximum agonist effect (relative to Orexin A)” value?
A: The value was 97.4%.

Q: Which EC50 does the source give for `CCN(C(=O)NC(C(F)F)C1CC1)[C@@H](c1cc(-c2cn3ccnc3c(OC)n2)c(OC)cn1)C(F)(F)F` (stereo partly drawn) [Example 2-7, 3-(1-cyclopropyl-2,2-difluoroethyl)-1-ethyl-1-((S)-2,2,2-trifluoro-1-(5-methoxy-4-(8-methoxyimidazo[1,2-a]pyrazin-6-yl)pyridin-2-yl)ethyl)urea] here?
A: The EC50 was 12.5 nM.

Q: What about the “% of maximum agonist effect (relative to Orexin A)” value of the same compound?
A: Its value is 100.1%.

Q: How did the EC50 turn out when `CCN(C(=O)N[C@@H](CCC(F)F)C(F)(F)F)[C@@H](c1cc(-c2cn3cc(C)nc3c(OC)n2)c(OC)cn1)C(F)(F)F` [Example 3-3, 1-ethyl-3-((S)-1,1,1,5,5-pentafluoropentan-2-yl)-1-((S)-2,2,2-trifluoro-1-(5-methoxy-4-(8-methoxy-2-methylimidazo[1,2-a]pyrazin-6-yl)pyridin-2-yl)ethyl)urea] was run?
A: Its EC50 is 3.6 nM.

Q: What about the “% of maximum agonist effect (relative to Orexin A)” value of the same compound?
A: The value was 101.6%.

Q: How did the EC50 turn out when `CCOC1(CC(NC(=O)N(CC)[C@H](C)c2cccc(-c3cn4ccnc4c(OC)n3)c2)C(F)(F)F)CC1` (stereo partly drawn) [Example 2-57, 3-(3-(1-ethoxycyclopropyl)-1,1,1-trifluoropropan-2-yl)-1-ethyl-1-((R)-1-(3-(8-methoxyimidazo[1,2-a]pyrazin-6-yl)phenyl)ethyl)urea] was run?
A: The EC50 was 15.3 nM.

Q: And the “% of maximum agonist effect (relative to Orexin A)” value?
A: Its value is 96.2%.

Q: Which EC50 does the source give for `CCN(C(=O)N[C@@H](CCC(F)(F)F)C(F)(F)F)C(c1cncc(-c2cn3ccnc3c(OC)n2)c1)C(F)(F)F` (stereo partly drawn) [Example 10-22, 1-ethyl-3-((S)-1,1,1,5,5,5-hexafluoropentan-2-yl)-1-(2,2,2-trifluoro-1-(5-(8-methoxyimidazo[1,2-a]pyrazin-6-yl)pyridin-3-yl)ethyl)urea] here?
A: The EC50 was 76.9 nM.

Q: What about the “% of maximum agonist effect (relative to Orexin A)” value of the same compound?
A: Its value is 99.4%.

Q: For `C#CCCCC(NC(=O)N(CC)[C@H](C)c1cccc(-c2cn3ccnc3c(OC)n2)c1)C(F)(F)F` (stereo partly drawn) [Example 3-7, 1-ethyl-1-((R)-1-(3-(8-methoxyimidazo[1,2-a]pyrazin-6-yl)phenyl)ethyl)-3-(1,1,1-trifluorohept-6-yn-2-yl)urea], which EC50 is on record?
A: Its EC50 is 4.4 nM.

Q: What about the “% of maximum agonist effect (relative to Orexin A)” value of the same compound?
A: The value was 100.5%.

Q: Which results are given for `CCN(C(=O)N[C@@H](CCC(F)(F)F)C(F)(F)F)[C@H](C)c1cccc(-c2cc(OC)c3ncnn3c2)c1` [Example 8-11, 1-ethyl-3-((S)-1,1,1,5,5,5-hexafluoropentan-2-yl)-1-((R)-1-(3-(8-methoxy-[1,2,4]triazolo[1,5-a]pyridin-6-yl)phenyl)ethyl)urea]?
A: EC50: 2 nM; % of maximum agonist effect (relative to Orexin A): 95.4%

Q: Which results are given for `CCN(C(=O)N[C@@H](CCC(F)(F)F)C(F)(F)F)[C@H](C)c1cnc(C)c(-c2cn3ccnc3c(OC)n2)c1` [Example 10-18, 1-ethyl-3-((S)-1,1,1,5,5,5-hexafluoropentan-2-yl)-1-((R)-1-(5-(8-methoxyimidazo[1,2-a]pyrazin-6-yl)-6-methylpyridin-3-yl)ethyl)urea]?
A: EC50: 11.9 nM; % of maximum agonist effect (relative to Orexin A): 99.8%

Q: How did the EC50 turn out when `CCN(C(=O)NC1CC1)[C@@H](c1cc(-c2cn3ccnc3c(OC)n2)c(OC)cn1)C(F)(F)F` [Example 2-32, (S)-3-cyclopropyl-1-ethyl-1-(2,2,2-trifluoro-1-(5-methoxy-4-(8-methoxyimidazo[1,2-a]pyrazin-6-yl)pyridin-2-yl)ethyl)urea] was run?
A: The EC50 was 40.8 nM.

Q: What about the “% of maximum agonist effect (relative to Orexin A)” value of the same compound?
A: Its value is 101.0%.

Q: For `CCN(C(=O)NC1CCC1C(F)(F)F)[C@@H](c1cc(-c2cn3ccnc3c(OC)n2)c(OC)cn1)C(F)(F)F` (stereo partly drawn) [Example 2-9, 1-ethyl-1-((S)-2,2,2-trifluoro-1-(5-methoxy-4-(8-methoxyimidazo[1,2-a]pyrazin-6-yl)pyridin-2-yl)ethyl)-3-(2-(trifluoromethyl)cyclobutyl)-urea], which EC50 is on record?
A: The EC50 was 20.3 nM.

Q: What about the “% of maximum agonist effect (relative to Orexin A)” value of the same compound?
A: The value was 100.0%.

Q: For `CCN(C(=O)N[C@@H](CCC(F)(F)F)C(F)(F)F)[C@H](C)c1cc(-c2cn3ccnc3c(OC)n2)ccn1` [Example 14-1, 1-ethyl-3-((S)-1,1,1,5,5,5-hexafluoropentan-2-yl)-1-((R)-1-(4-(8-methoxyimidazo[1,2-a]pyrazin-6-yl)pyridin-2-yl)ethyl)urea], which EC50 is on record?
A: The EC50 was 1.5 nM.

Q: And the “% of maximum agonist effect (relative to Orexin A)” value?
A: The value was 100.3%.

Q: For `CCN(C(=O)NC(CNS(=O)(=O)N(C)C)C(F)(F)F)[C@H](C)c1cccc(-c2cn3ccnc3c(OC)n2)c1` (stereo partly drawn) [Example 17, N-{3-[(dimethylsulfamoyl)amino]-1,1,1-trifluoropropan-2-yl}-N-ethyl-N-{(1R)-1-[3-(8-methoxyimidazo[1,2-a]pyrazin-6-yl)phenyl]ethyl}urea], which EC50 is on record?
A: Its EC50 is 0.7 nM.

Q: And the “% of maximum agonist effect (relative to Orexin A)” value?
A: The value was 101.8%.

Q: For `CCN(C(=O)N[C@@H](CCC(F)(F)F)C(F)(F)F)[C@@H](c1ccc(OC)c(-c2ccc3nccn3c2)c1)C(F)(F)F` [Example 2-23, 1-ethyl-3-((S)-1,1,1,5,5,5-hexafluoropentan-2-yl)-1-((S)-2,2,2-trifluoro-1-(3-(imidazo[1,2-a]pyridin-6-yl)-4-methoxyphenyl)ethyl)urea], which EC50 is on record?
A: Its EC50 is 2.7 nM.

Q: And the “% of maximum agonist effect (relative to Orexin A)” value?
A: Its value is 100.8%.

Q: How did the EC50 turn out when `CCN(C(=O)N[C@@H](CCC(F)(F)F)C(F)(F)F)[C@@H](c1cc(-c2cc(OC)n3nccc3n2)c(OC)cn1)C(F)(F)F` [Example 9-8, 1-ethyl-3-((S)-1,1,1,5,5,5-hexafluoropentan-2-yl)-1-((S)-2,2,2-trifluoro-1-(5-methoxy-4-(7-methoxypyrazolo[1,5-a]pyrimidin-5-yl)pyridin-2-yl)ethyl)urea] was run?
A: Its EC50 is 44 nM.

Q: What about the “% of maximum agonist effect (relative to Orexin A)” value of the same compound?
A: Its value is 99.5%.

Q: For `CCN(C(=O)N[C@@H](CCC(F)(F)F)C(F)(F)F)[C@H](C)c1cccc(-c2cc(OC)c3nc(C(F)(F)F)cn3c2)c1` [Example 27, 1-ethyl-3-((S)-1,1,1,5,5,5-hexafluoropentan-2-yl)-1-((R)-1-(3-(8-methoxy-2-(trifluoromethyl)imidazo[1,2-a]pyridin-6-yl)phenyl)ethyl)urea], which EC50 is on record?
A: Its EC50 is 619 nM.

Q: And the “% of maximum agonist effect (relative to Orexin A)” value?
A: Its value is 98.5%.

Q: How did the EC50 turn out when `CCN(C(=O)N[C@@H](CCS(C)(=O)=O)C(F)(F)F)[C@@H](c1cc(-c2cn3ccnc3c(OC)n2)c(OC)cn1)C(F)(F)F` [Example 2-36, 1-ethyl-1-((S)-2,2,2-trifluoro-1-(5-methoxy-4-(8-methoxyimidazo[1,2-a]pyrazin-6-yl)pyridin-2-yl)ethyl)-3-((S)-1,1,1-trifluoro-4-(methylsulfonyl)butan-2-yl)urea] was run?
A: The EC50 was 0.7 nM.

Q: And the “% of maximum agonist effect (relative to Orexin A)” value?
A: Its value is 100.5%.

Q: `CCN(C(=O)NC(CC(C)=O)C(F)(F)F)[C@@H](c1cc(-c2cn3ccnc3c(OC)n2)c(OC)cn1)C(F)(F)F` (stereo partly drawn) [Example 2-34, 1-ethyl-1-((S)-2,2,2-trifluoro-1-(5-methoxy-4-(8-methoxyimidazo[1,2-a]pyrazin-6-yl)pyridin-2-yl)ethyl)-3-(1,1,1-trifluoro-4-oxopentan-2-yl)urea] was tested. Which EC50 did it give?
A: Its EC50 is 2.7 nM.

Q: And the “% of maximum agonist effect (relative to Orexin A)” value?
A: The value was 101.1%.

From patent US12692262B2, “Substituted ureas as orexin receptor agonists” (Merck Sharp & Dohme LLC, priority 2020, dated 2026)
